Among the data in US5130462A, “Cyclobutane derivatives” (E. R. Squibb & Sons, Inc., priority 1991, dated 1992) are IC50 values, retold here.

For test [1], the system named is HSV-2. Briefly: HSV-2 plaque reduction assay in WI-38 cells. It counts as cell-based, herpes simplex virus type 2, strain 186. Conditions: Human alphaherpesvirus 2, WI-38, 96 h, read-out: ID50 HSV-2. As to the method: (§1) Assays were performed in cell culture systems to determine the concentrations of compounds that are effective in preventing several kinds of viral infections.
(§2) HSV-1 (herpes simplex virus type 1, strain Schooler), HSV-2 (herpes simplex virus type 2, strain 186), VZV (varicella zoster virus, strain ELLEN), HCMV (human cytomegalovirus, strain AD 169), MuLV (murine leukemia virus, strain CAS), HIV (human immunodeficiency virus, strain HTLV-IIIB).
(§3) HSV-1, HSV-2, HCMV, and VZV antiviral assays: Virus was adsorbed to WI-38 cell culture monolayers in 6 well culture plates (Costar, Cambridge, Mass.) for 1 hour prior to addition of maintenance medium containing duplicate dilutions of the test compound. Inhibition of plaque development was evaluated on fixed and stained monolayers after 4 days incubation at 37° C. for HSV-1 and HSV-2 and after 6-7 days incubation at 37° C. for HCMV and VZV. ID50 values were determined from the drug concentration which conferred at least a 50% plaque reduction compared to virus controls.
(Plaque reduction counts the foci of infection that form in a cell layer.)

Test [2] has as its system HCMV. Kind of test: HCMV plaque reduction assay in WI-38 cells. It counts as cell-based, human cytomegalovirus, strain AD 169. Conditions: Human betaherpesvirus 5, 6-7 days, 37° C, read-out: ID50 HCMV. The method, then:
as §1, §2, §3

For test [3], the system named is VZV. Briefly: VZV plaque reduction assay in WI-38 cells. The test is classed as cell-based, varicella zoster virus, strain ELLEN. As to conditions: Human alphaherpesvirus 3, 6-7 days, 37° C, read-out: ID50 VZV. As to the method: as §1, §2, §3
The test system of test [4] is HIV. Briefly: HIV antiviral assay, inhibition of CPE in CEM cells (XTT-PMS). It counts as cell-based, strain HTLV-IIIB. Conditions: Human immunodeficiency virus 1, CCRF-CEM, 168 h, 7 days, read-out: ID50 HIV. As to the method: as §1, §2
HIV antiviral assay: Suspensions of CEM(Nara and Fischinger, Nature, 332:469, 1988) cells were infected at a multiplicity of infection (e.g. virus/cell) of 0.12 with HIV (strain HTLV-III B). […] Following incubation, viable cell numbers were counted in each well using a colorimetric assay following incubation of cells with XTT-PMS solution (XTT tetrazolium reagent plus phenazine methosulfate PMS).
Percent reduction of viral cytopathic effect (CPE) in drug treated compared to untreated virus infected cells, and percent reduction of cell viability in drug treated uninfected cells compared to untreated controls were calculated and plotted versus the drug concentrations tested. From these plots, the IDso (the minimum drug concentration that inhibits CPE by 50%) for each drug was calculated.
Background: Formazan colour is commonly taken as a measure of viable cells.

A value given as a limit tells only on which side of the number the result lay.

On to `O=c1[nH]c(=O)n([C@H]2C[C@@H](CO)[C@@H]2CO)cc1I` (relative stereo) [(1α,2β,3α)-1-[2,3-Bis(hydroxymethyl)cyclobutyl]-5-iodo-2,4(1H,3H)-pyrimidinedione], for which the IC50 in test [1] and in test [2] was > 284 µM throughout. As for `O=c1[nH]c(=O)n([C@H]2C[C@@H](CO)[C@@H]2CO)cc1/C=C/Br` (relative stereo) [[1α(E),2β,3α]-1-[2,3-Bis(hydroxymethyl)-cyclobutyl]-5-(2-bromoethenyl)-2,4(1H,3H)-pyrimidinedione], the IC50 in test [1] and in test [2] was > 302 µM each time. On to `Nc1nc2c(nnn2[C@H]2C[C@@H](CO)[C@@H]2CO)c(=O)[nH]1` (relative stereo) [(1α,2β,3α)-5-Amino-3-[2,3-bis(hydroxymethyl)cyclo-butyl]-3,6-dihydro-7H-1,2,3-triazolo[4,5-d]-pyrimidin-7-one], for which, in test [3], the IC50 was in the range of 3.8 to 38 µM. In the case of `Nc1nc2c(ncn2[C@H]2C[C@@H](CO)[C@@H]2CO)c(=O)[nH]1` (relative stereo) [(1α,2β,3α)-9-[2,3-Bis(hydroxymethyl)cyclobutyl]guanine], the IC50 in test [4] is 30 µM. For the compound `Nc1ncnc2c1ncn2[C@H]1C[C@@H](CO)[C@@H]1CO` (relative stereo) [(1α,2β,3α)-3-(6-Amino-9H-purin-9-yl)-1,2-cyclobutanedimethanol], the IC50 in test [4] is 6.8 µM.
